Test [1] relates to Saccharomyces cerevisiae. Kind of test: DNA damaging activity against DNA repair-deficient yeast RAD52 mutant assessed as drug concentration required to produce 12 mm zone of inhibition. It counts as functional.
Test [2] relates to Saccharomyces cerevisiae. Kind of test: DNA damaging activity against DNA repair-proficient yeast RAD+ assessed as drug concentration required to produce 12 mm zone of inhibition. It is filed as functional.

We go through two molecules from ChEMBL document CHEMBL1150602, “Novel diterpene lactones from Suregada multiflora” (2002).

Turning to `CC1=C2[C@@H](O)[C@]3(O)CC[C@@H]4[C@@]5(C)C[C@H]5CC[C@@]4(C)[C@@H]3C[C@H]2OC1=O` [SUREGADOLIDE A], the IC12 with Saccharomyces cerevisiae [1] came out at 35 µg/mL; in the test on Saccharomyces cerevisiae [2] it was 70 µg/mL.

`COC1=C(N)C(=O)c2nc(-c3nc(C(=O)O)c(C)c(-c4ccc(OC)c(OC)c4O)c3N)ccc2C1=O` [STREPTONIGRIN]: the IC12 is 0.4 µg/mL in the test on Saccharomyces cerevisiae [1] and above 1 µg/mL in the test with Saccharomyces cerevisiae [2].
